{"source": "patent US12146005B2", "about": "“Compositions and methods for treatment of fungal infections” (THE UNIVERSITY OF SOUTHERN CALIFORNIA, priority 2019, dated 2024)", "key": {"C. albicans strain 53264": {"system": "C. albicans strain 53264", "settings": "cited from earlier work"}, "C. albicans SC5314 [1]": {"system": "C. albicans SC5314", "experiment": "In vivo model of disseminated candidiasis in BALB/c mice (survival, body weight, renal fungal burden)", "settings": "for survival compared to saline controls, P (log-rank analysis): observed 26 days p.i.; for survival compared to saline controls, P (log-rank analysis) / survival efficacy, comparison in words: FIG. 8; for renal fungal burden reduced to a greater extent than fluconazole, P (Fisher's LSD test): peptide 0.1 or 0.25 mg/kg versus fluconazole 5 mg/kg; for survival efficacy relative to MTD1280: candidemia model, survival as metric, 0.1 mg/kg versus MTD1280 0.25 mg/kg, FIGS. 10 to 13; for survival by end point analysis versus fluconazole: χ^2 analysis at day 30 p.i.", "experimental": "Mice were infected i.v. at T=0 with 3×105 blastospores of C. albicans SC5314.\nMice were infected i.v. at T=0 with 3×10^5 blastospores of C. albicans SC5314. At T=24 h, mice were treated i.p. daily for 7 d w.\nSuitable cyclic tetradecapeptides can be identified by screening against a murine model for disseminated candidiasis. C. albicans SC5314 obtained from American Type Culture Collection can be used as a suitable reference strain. […] Typical antifungal drugs include caspofungin and fluconazole. Cyclic tetradecapeptides to be tested and antifungal drugs can be suspended or dissolved in water or isotonic saline and administered by one or more of intravenous, subcutaneous, intramuscular, and/or intraperitoneal injection.\nIn vitro activity of synthetic cyclic tetradecapeptides and antifungal compounds can be determined using conventional culture techniques that are known in the art as described above in relation to RTD-1, and can be used to determine sub-antifungal concentrations. Systemic or disseminated candidiasis can be modeled in vivo by, for example, challenging BALB/c female mice with 0.15 to 2 mL of C. albicans (reference strain or resistant strain) at from about 2×10^5 to about 2×10^7 CFU/mL of the organism. Animals can the be treated with candidate synthetic cyclic tetradecapeptide before challenge with the pathogen, at the time of pathogen challenge, or after challenge with the pathogen. Antifungal drugs and/or candidate synthetic cyclic tetradecapeptide can be administered by intravenous, subcutaneous, intramuscular, and/or intraperitoneal injection in such an in vivo model of systemic or disseminated candidiasis.\nIn activity studies the synthetic cyclic tetradecapeptide MTD1280 (SEQ ID NO. 6), which was identified initially as having significant antifungal activity, was used as a model peptide. Briefly, 7-8 week old, immunocompetent, female BALB/c mice were challenged i.v. at T=0 with 3×10^5 CFU of C. albicans SC5314. […] As shown, caspofungin (Caspo) is not effective against this strain of C. albicans.\nCandidate synthetic cyclic tetradecapeptides were pre-screened for tolerance by determining a lack of toxicity when administered at >5 mg/kg."}, "C. albicans SC5314 [2]": {"system": "C. albicans SC5314", "settings": "strain SC5314, cited from earlier work"}, "C. albicans strain 43001": {"system": "C. albicans strain 43001", "settings": "cited from earlier work"}, "[3]": {"system": "susceptible and multiple drug resistant strains of C. albicans", "settings": "cited from earlier work"}, "C. albicans [4]": {"system": "C. albicans", "experiment": "In vitro antifungal activity, sub-antifungal concentration, C. albicans in general", "type": "cell-based, Candida albicans", "settings": "in the presence of serum", "description": "Within the context of this application, a “sub-antifungal concentration” in regard to a fungal pathogen should be understood to be a concentration at which the compound so described has no antifungal effect when applied to the fungal pathogen in vitro (e.g. in a liquid culture medium), e.g. in the absence of host immune effectors.\nBasso et al. (Basso et al., “Rhesus theta defensin 1 promotes long term survival in systemic candidiasis by host directed mechanisms” Nature Scientific Reports (2019) 9: 16905) provides an example of determination of sub-antifungal concentration for the native θ-defensin RTD-1 in regard to different strains of Candida albicans. Cultures of different strains of C. albicans were established in RPMI media or RPMI media containing 50% serum. […] MFC was determined as the lowest concentration that provided 99% killing relative to the input inoculum. MIC was determined as the lowest concentration that inhibited growth.\nBased on such data, for C. albicans a sub-antifungal concentration of RTD-1 in the presence of serum would be less than 100 μg/mL. Such sub-antifungal concentrations can be determined experimentally (for example, by culture from a patient sample) or, preferably, from historical data. […]"}, "C. albicans [5]": {"system": "C. albicans", "settings": "cited from earlier work"}, "[6]": {"settings": "5 mg/kg i.p. daily for 7 d from 24 h p.i."}, "[7]": {"settings": "5 mg/kg i.p. once a day for 7 days"}, "[8]": {"settings": "RPMI, lowest concentration giving 99% killing"}, "[9]": {"settings": "RPMI, lowest concentration that inhibited growth"}, "[10]": {"settings": "long term survivors 30 days p.i., FIG. 14"}}, "note": "“Also recorded” adds a separate entry of the source. Like-named read-outs stand apart in the source and are kept apart here. Bridge positions count the residues as written; N and C are the ends.", "data": [{"compound": "CC[C@H](C)C[C@H](C)CCCCCCCCC(=O)N[C@H]1C[C@@H](O)[C@@H](NCCN)NC(=O)[C@@H]2[C@@H](O)CCN2C(=O)[C@H]([C@H](O)CCN)NC(=O)[C@H]([C@H](O)[C@@H](O)c2ccc(O)cc2)NC(=O)[C@@H]2C[C@@H](O)CN2C(=O)[C@H]([C@@H](C)O)NC1=O", "note": "[Caspofungin, caspofungin]", "values": [{"measurement": "MFC", "setting": "C. albicans strain 53264; RPMI", "value": ">8", "unit": "µg/mL"}, {"measurement": "MIC", "setting": "C. albicans strain 53264; RPMI", "value": ">8", "unit": "µg/mL"}, {"measurement": "survival compared to saline controls, P (log-rank analysis)", "setting": "C. albicans SC5314 [1]; [6]", "value": "3.4×10^−6"}, {"measurement": "survival efficacy, comparison in words", "setting": "C. albicans SC5314 [1]; [7]", "value": "not effective"}, {"measurement": "MFC", "setting": "C. albicans SC5314 [2]; [8]", "value": ">256", "unit": "µg/mL"}, {"measurement": "MIC", "setting": "C. albicans SC5314 [2]; [9]", "value": 0.06, "unit": "µg/mL"}, {"measurement": "MFC", "setting": "C. albicans strain 43001; RPMI", "value": 2, "unit": "µg/mL"}, {"measurement": "MIC", "setting": "C. albicans strain 43001; RPMI", "value": 2, "unit": "µg/mL"}]}, {"compound": "OC(Cn1cncn1)(Cn1cncn1)c1ccc(F)cc1F", "note": "[Fluconazole, fluconazole]", "values": [{"measurement": "survival compared to saline controls, P (log-rank analysis)", "setting": "C. albicans SC5314 [1]; [6]", "value": "3.4×10^−6"}, {"measurement": "renal fungal burden in kidney homogenates", "setting": "C. albicans SC5314 [1]; long term survivors 30 days p.i., peptide 0.1 or 0.25 mg/kg, fluconazole 5 mg/kg, FIG. 14", "value": "reduced fungal burden"}, {"measurement": "MIC", "setting": "C. albicans SC5314 [2]; [9]", "value": 64, "unit": "µg/mL"}]}, {"compound": "MTD1280: model synthetic cyclic tetradecapeptide θ-defensin analog, SEQ ID NO. 6, used as reference peptide (GVCICRRRFCLCRR; cyclic; Synthetic cyclic peptide MTD1280)", "values": [{"measurement": "survival benefit", "setting": "C. albicans SC5314 [1]; 0.1 mg/kg i.p. once a day for 7 days, FIG. 9", "value": "no survival benefit"}, {"measurement": "survival compared to saline controls, P (log-rank analysis)", "setting": "C. albicans SC5314 [1]; 0.25 mg/kg i.p. daily for 7 d from 24 h p.i.", "value": "2.3×10^−7"}, {"measurement": "survival efficacy, comparison in words", "setting": "C. albicans SC5314 [1]; 0.25 mg/kg i.p. once a day for 7 days", "value": "more effective than 5 mg/kg of RTD-1; also recorded: more effective than 5 mg/kg of fluconazole"}, {"measurement": "transient mean reduction in bodyweight", "setting": "C. albicans SC5314 [1]; long term surviving treated candidemic mice, plateaued by day 10", "value": 15, "unit": "%"}, {"measurement": "share of cohort that regained initial body weights", "setting": "C. albicans SC5314 [1]; long term surviving treated mice; by day 3)", "value": 90, "unit": "%"}, {"measurement": "renal fungal burden reduced to a greater extent than fluconazole, P (Fisher's LSD test)", "setting": "C. albicans SC5314 [1]; [10]", "value": "3×10^−3"}]}, {"compound": "MTD1283: synthetic cyclic tetradecapeptide θ-defensin analog, SEQ ID NO. 4, two disulfide bonds (cyclo(GVCICRRRVCICRR); disulfide (positions not given here))", "values": [{"measurement": "survival efficacy relative to MTD1280", "setting": "C. albicans SC5314 [1]", "value": "equivalent or superior to MTD1280"}, {"measurement": "renal fungal burden reduced to a greater extent than fluconazole, P (Fisher's LSD test)", "setting": "C. albicans SC5314 [1]; [10]", "value": "7.4×10^−3"}, {"measurement": "survival by end point analysis versus fluconazole", "setting": "C. albicans SC5314 [1]; fluconazole 5 mg/kg", "value": "more effective than fluconazole"}]}, {"compound": "MTD1288: synthetic cyclic tetradecapeptide θ-defensin analog, SEQ ID NO. 5, two disulfide bonds (cyclo(GLCICRRRACLCRR); disulfide (positions not given here))", "values": [{"measurement": "survival efficacy relative to MTD1280", "setting": "C. albicans SC5314 [1]", "value": "equivalent or superior to MTD1280"}, {"measurement": "renal fungal burden reduced to a greater extent than fluconazole, P (Fisher's LSD test)", "setting": "C. albicans SC5314 [1]; [10]", "value": 0.02}, {"measurement": "survival by end point analysis versus fluconazole", "setting": "C. albicans SC5314 [1]; fluconazole 5 mg/kg", "value": "more effective than fluconazole"}]}, {"compound": "MTD12810: synthetic cyclic tetradecapeptide θ-defensin analog, SEQ ID NO. 2, two disulfide bonds (Cys3-Cys12, Cys5-Cys10) (cyclo(GVCSCRRRFCLCRR); disulfide 5-10, 3-12)", "values": [{"measurement": "survival efficacy relative to MTD1280", "setting": "C. albicans SC5314 [1]", "value": "equivalent or superior to MTD1280"}, {"measurement": "renal fungal burden reduced to a greater extent than fluconazole, P (Fisher's LSD test)", "setting": "C. albicans SC5314 [1]; [10]", "value": "3.5×10^−5"}, {"measurement": "survival by end point analysis versus fluconazole", "setting": "C. albicans SC5314 [1]; fluconazole 5 mg/kg", "value": "more effective than fluconazole"}]}, {"compound": "MTD12811: synthetic cyclic tetradecapeptide θ-defensin analog, SEQ ID NO. 3, two disulfide bonds (cyclo(GVCSCRRRFCICRR); disulfide (positions not given here))", "values": [{"measurement": "survival efficacy relative to MTD1280", "setting": "C. albicans SC5314 [1]", "value": "equivalent or superior to MTD1280"}]}, {"compound": "RTD-1: naturally occurring rhesus θ-defensin, cyclic octadecapeptide with three disulfide bonds, SEQ ID NO. 1 (cyclo(GFCRCLCRRGVCRCICTR); disulfide (positions not given here); listed as Macaca mulatta)", "values": [{"measurement": "MFC", "setting": "C. albicans strain 53264; 50% serum", "value": ">100", "unit": "µg/mL"}, {"measurement": "MIC", "setting": "C. albicans strain 53264; 50% serum", "value": ">100", "unit": "µg/mL"}, {"measurement": "MFC", "setting": "C. albicans strain 53264; RPMI", "value": 12.5, "unit": "µg/mL"}, {"measurement": "MIC", "setting": "C. albicans strain 53264; RPMI", "value": 12.5, "unit": "µg/mL"}, {"measurement": "long term production of pro-inflammatory cytokines", "setting": "[3]; in vivo, treatment with RTD-1", "value": "reduction in long term production of pro-inflammatory cytokines"}, {"measurement": "efficacy in animal models of systemic candidiasis", "setting": "[3]; susceptible and multiple drug resistant strains", "value": "effective"}, {"measurement": "survival compared to saline controls, P (log-rank analysis)", "setting": "C. albicans SC5314 [1]; [6]", "value": "3.4×10^−6"}, {"measurement": "survival efficacy, comparison in words", "setting": "C. albicans SC5314 [1]; [7]", "value": "more effective than 5 mg/kg of fluconazole"}, {"measurement": "sub-antifungal concentration", "setting": "C. albicans [4]", "value": "less than 100 μg/mL"}, {"measurement": "in vitro antifungal activity in the presence of serum", "setting": "C. albicans [5]; in vitro studies, serum", "value": "abolished by the presence of serum"}, {"measurement": "in vitro concentration required relative to concentrations effective in vivo", "setting": "C. albicans [5]; in vitro versus murine model", "value": "≥ 50", "unit": "fold"}, {"measurement": "MFC", "setting": "C. albicans SC5314 [2]; 50% serum", "value": ">100", "unit": "µg/mL"}, {"measurement": "MIC", "setting": "C. albicans SC5314 [2]; 50% serum", "value": ">100", "unit": "µg/mL"}, {"measurement": "MFC", "setting": "C. albicans SC5314 [2]; [8]", "value": 25, "unit": "µg/mL"}, {"measurement": "MIC", "setting": "C. albicans SC5314 [2]; [9]", "value": 12.5, "unit": "µg/mL"}, {"measurement": "MFC", "setting": "C. albicans strain 43001; 50% serum", "value": ">100", "unit": "µg/mL"}, {"measurement": "MIC", "setting": "C. albicans strain 43001; 50% serum", "value": ">100", "unit": "µg/mL"}, {"measurement": "MFC", "setting": "C. albicans strain 43001; RPMI", "value": 12.5, "unit": "µg/mL"}, {"measurement": "MIC", "setting": "C. albicans strain 43001; RPMI", "value": 6.25, "unit": "µg/mL"}]}]}
